Experiments:
Assay type in all cases: in vitro ADME
CYP2C9 = target: T1, CYP2C9 (Homo sapiens, UniProt P11712); experiment: CYP inhibition assay in human liver microsome, CYP2C9; settings: human, liver microsomes, probe diclofenac, HLM, diclofenac substrate, read-out: CYP inhibition % @10 uM (2C9)
T1 construct: tissue BD-Gentest 452117; host or cells: human liver microsomes
Protocol: (§1) This is a high throughput screening assay used for assessment of reversible inhibition of CYP2C9, CYP2D6, and CYP3A4 activity of test compounds in human liver microsome (HLM) in early discovery stage.
(§2) 10 mM DMSO stock solutions of test compounds were diluted in DMSO to generate 2 mM intermediate stock solution. 250 nL of intermediate stock solution were transferred in duplicate into 3 separate 384 well microtitre plates (assay-ready plates). A mixture of HLM and each substrate was made up. 45 μL of HLM substrate mix was then transferred to each well of an assay ready plate and mixed. The negative (solvent) and positive controls (standard inhibitor for each CYP) were included in each assay ready plate. The assay ready plate was warmed to 37° C. in an incubator over 10 minutes. 5 μL pre-warmed NADPH regenerating system was added to each incubation well to start the reaction. Final incubation volume was 50 μL. The assay plate then was placed back in the 37° C. incubator. After 5 minutes incubation (10 minutes for CYP2D6), incubates were quenched by addition of 50 μL quench reagent containing internal standards (400 ng/mL 13C6-4′-OH-Diclofenac, 20 ng/mL D3-Dextrorphan and 20 ng/mL D4-1′OH-Midazolam in acetonitrile). The supernatants were collected for RapidFire/MS/MS analysis.
(§3) RapidFire online solid phase extraction/sample injection system (Agilent) coupled with API4000 triple quadrupole mass spectrometer (AB Sciex) were used for sample analysis. The mobile phase composed of acetonitrile and water supplemented with 0.1% formic acid. A C4 solid phase extraction cartridge is used for sample separation. MS detection is achieved in positive ion MRM mode.
(§4) Peak areas for substrate, metabolite and internal standard are determined using the
(§5) RapidFire integrator software (version 3.6.12009.12296). Peak area ratios (PAR) of metabolite and internal standard (stable-labelled metabolite) are then calculated. The measurement window for each experiment is then defined:
(§6) PAR (0% activity)=average PAR for all incubations containing concentrated inhibitor;
(§7) Par (100% activity)=average PAR for all incubations containing no inhibitor (DMSO controls);
(§8) % Activity (test inhibitor) =[PAR(test inhibitor)-PAR(0% activity)][PAR(100% activity)-PAR(0% activity)];
(§9) % Inhibition (test inhibitor)=100-% Activity (test inhibitor).
(§10) Percentage inhibition data are then reported, in duplicate, for the 3 CYP enzymes.

CYP2D6 = target: T2, CYP2D6 (Homo sapiens, UniProt P10635); experiment: CYP inhibition assay in human liver microsome, CYP2D6; settings: human, liver microsomes, probe dextromethorphan, HLM, dextromethorphan substrate, read-out: CYP inhibition % @10 uM (2D6)
T2 construct: tissue BD-Gentest 452117; host or cells: human liver microsomes
T2 sequence (P10635 whole entry): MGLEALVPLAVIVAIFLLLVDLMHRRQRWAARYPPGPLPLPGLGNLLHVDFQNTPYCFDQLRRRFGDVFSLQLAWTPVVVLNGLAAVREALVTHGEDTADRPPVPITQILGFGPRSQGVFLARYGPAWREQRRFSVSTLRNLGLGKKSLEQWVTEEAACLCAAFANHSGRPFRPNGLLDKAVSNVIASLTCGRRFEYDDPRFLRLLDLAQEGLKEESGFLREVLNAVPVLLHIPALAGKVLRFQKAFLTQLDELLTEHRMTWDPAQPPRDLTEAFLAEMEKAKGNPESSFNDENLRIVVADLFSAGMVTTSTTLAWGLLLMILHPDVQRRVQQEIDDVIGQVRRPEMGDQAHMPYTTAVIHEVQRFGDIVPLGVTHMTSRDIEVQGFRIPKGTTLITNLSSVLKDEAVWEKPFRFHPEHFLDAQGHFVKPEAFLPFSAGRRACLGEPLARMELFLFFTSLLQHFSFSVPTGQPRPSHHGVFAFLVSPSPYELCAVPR
Protocol: as §1, §2, §3, §4, §5, §6, §7, §8, §9, §10

[1] = Human microsome stability assay; settings: 1 μM test compound, 0.5 mg/mL protein
Protocol: The human microsomal stability assay is used for early assessment of metabolic stability of a test compound in human liver microsomes.
Human liver microsomes (Cat. NO.: 452117, Corning, USA; Cat. NO.: H2610, Xenotech, USA) were preincubated with test compound for 10 minutes at 37° C. in 100 mM potassium phosphate buffer, pH 7.4. The reactions were initiated by adding NADPH regenerating system. The final incubation mixtures contained 1 μM test compound, 0.5 mg/mL liver microsomal protein, 1 mM MgCl2, 1 mM NADP, 1 unit/mL isocitric dehydrogenase and 6 mM isocitric acid in 100 mM potassium phosphate buffer, pH 7.4. After incubation times of 0, 3, 6, 9, 15 and 30 minutes at 37° C., 300 μL of cold ACN (including internal standard) was added to 100 μL incubation mixture to terminate the reaction. Following precipitation and centrifugation, the amount of compound remaining in the samples were determined by LC-MS/MS. Controls of no NADPH regenerating system at zero and 30 minutes were also prepared and analyzed. The results were categorized as: low (<7.0 mL/min/kg), medium (7.0˜16.2 mL/min/kg) and high (16.2-23.2 mL/min/kg).

T1 sequence (P11712 whole entry): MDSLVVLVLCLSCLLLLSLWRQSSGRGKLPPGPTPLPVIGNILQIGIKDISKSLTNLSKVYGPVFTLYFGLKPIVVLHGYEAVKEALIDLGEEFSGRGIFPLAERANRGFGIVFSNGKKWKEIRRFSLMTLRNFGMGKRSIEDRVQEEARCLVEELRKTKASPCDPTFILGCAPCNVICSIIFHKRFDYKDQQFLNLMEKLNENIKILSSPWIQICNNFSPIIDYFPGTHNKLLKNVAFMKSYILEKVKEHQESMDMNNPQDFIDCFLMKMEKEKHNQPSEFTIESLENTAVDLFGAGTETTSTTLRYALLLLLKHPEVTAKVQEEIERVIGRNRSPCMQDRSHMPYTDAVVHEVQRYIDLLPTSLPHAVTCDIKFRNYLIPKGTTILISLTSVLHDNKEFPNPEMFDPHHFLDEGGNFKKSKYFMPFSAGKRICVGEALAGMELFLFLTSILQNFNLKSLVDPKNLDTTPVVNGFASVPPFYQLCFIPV

| SMILES | inhibition at 5 min, 10 µM (CYP2C9) [%] | inhibition at 10 min, 10 µM (CYP2D6) [%] | clearance in human liver microsomes [1] [mL/min/kg] |
| --- | --- | --- | --- |
| C[C@@H]1CN(c2ccc(Cl)c3ncccc23)C[C@H](C(=O)NC2CCN(C)CC2)O1 [Example 24, (2R,6R)-4-(8-chloro-5-quinolyI)-6-methyl-N-(1-methyl-4-piperidyl)morpholine-2-carboxamide] | -20 | -6 | 6.15 |
| C[C@@H]1CN(c2ccc(Cl)c3ncccc23)C[C@H](C(=O)NC2CCCNCC2)O1 (stereo partly drawn) [Example 25, (2R,6R)-N-(azepan-4-yl)-4-(8-chloro-5-quinolyl)-6-methyl-morpholine-2-carboxamide] | 26 | 0 | 7.16 |
| C[C@@H]1CN(c2ccc(Cl)c3ncccc23)C[C@H](C(=O)NCC2CN(C)CCO2)O1 (stereo partly drawn) [Example 26, (2R,6R)-4-(8-chloro-5-quinolyl)-6-methyl-N-[(4-methylmorpholin-2-yl)methyl]morpholine-2-carboxamide] | -13 | 3 | 6.15 |
| C[C@@H]1CN(c2ccc(C(F)(F)F)c3ncccc23)C[C@H](C(=O)NC[C@@H]2C[C@@H](F)CN2)O1 [Example 27, (2R,6R)-N-[[(2S,4R)-4-fluoropyrrolidin-2-yl]methyl]-6-methyl-4-[8-(trifluoromethyl)-5-quinolyl]morpholine-2-carboxamide] | -8 | 6 | 6.15 |
| C[C@@H]1CN(c2ccc(C(F)(F)F)c3ncccc23)C[C@H](C(=O)NC2C3CCC2CNC3)O1 (stereo partly drawn) [Example 31, (2R,6R)-N-(3-azabicyclo[3.2.1]octan-8-yl)-6-methyl-4-[8-(trifluoromethyl)-5-quinolyl]morpholine-2-carboxamide] | -1 | 2 | 6.15 |
| C[C@@H]1CN(c2ccc(I)c3ncccc23)C[C@H](C(=O)NC2CCN(C)CC2)O1 [Example 38, (2R,6R)-4-(8-iodo-5-quinolyl)-6-methyl-N-(1-methyl-4-piperidyl)morpholine-2-carboxamide] | -3 | -1 | 7.04 |
